Patent US20050004134A1, “Thiazole derivative and pharmaceutical use thereof” (priority 2001, published 2005)

melting point [°C] | SMILES
162 to 167 | CC(C)n1nc(-c2sc(NC(=O)c3ccc(C(F)(F)F)cc3)nc2-c2ccccc2)ccc1=O [Example 39, N-[5-(1-Isopropyl-6-oxo-1,6-dihydro-3-pyridazinyl)-4-phenyl-1,3-thiazol-2-yl]-4-(trifluoromethyl)benzamide]
219 to 220 | CC(C)n1nc(-c2sc(NC(=O)c3ccccc3C(F)(F)F)nc2-c2ccccc2)ccc1=O [Example 40, N-[5-(1-Isopropyl-6-oxo-1,6-dihydro-3-pyridazinyl)-4-phenyl-1,3-thiazol-2-yl]-2-(trifluoromethyl)benzamide]
> 250 | COc1ccccc1C(=O)Nc1nc(-c2ccccc2)c(-c2ccc(=O)n(C(C)C)n2)s1 [Example 41, N-[5-(1-Isopropyl-6-oxo-1,6-dihydro-3-pyridazinyl)-4-phenyl-1,3-thiazol-2-yl]-2-methoxybenzamide]
198 to 199 | Cc1cccc(C(=O)Nc2nc(-c3ccccc3)c(-c3ccc(=O)n(C(C)C)n3)s2)c1 [Example 42, N-[5-(1-Isopropyl-6-oxo-1,6-dihydro-3-pyridazinyl)-4-phenyl-1,3-thiazol-2-yl]-3-methylbenzamide]
207 to 208 | CC(C)n1nc(-c2sc(NC(=O)c3cc(C(F)(F)F)cc(C(F)(F)F)c3)nc2-c2ccccc2)ccc1=O [Example 44, N-[5-(1-Isopropyl-6-oxo-1,6-dihydro-3-pyridazinyl)-4-phenyl-1,3-thiazol-2-yl]-3,5-bis(trifluoromethyl)benzamide]
219 to 221 | COc1ccc(C(=O)Nc2nc(-c3ccccc3)c(-c3ccc(=O)n(C(C)C)n3)s2)cc1 [Example 45, N-[5-(1-Isopropyl-6-oxo-1,6-dihydro-3-pyridazinyl)-4-phenyl-1,3-thiazol-2-yl]-4-methoxybenzamide]
220 to 221 | CC(C)n1nc(-c2sc(NC(=O)c3ccccc3Cl)nc2-c2ccccc2)ccc1=O [Example 46, 2-Chloro-N-[5-(1-isopropyl-6-oxo-1,6-dihydro-3-pyridazinyl)-4-phenyl-1,3-thiazol-2-yl]benzamide]
205 to 206 | CC(C)n1nc(-c2sc(NC(=O)c3ccc(Cl)cc3)nc2-c2ccccc2)ccc1=O [Example 47, 4-Chloro-N-[5-(1-isopropyl-6-oxo-1,6-dihydro-3-pyridazinyl)-4-phenyl-1,3-thiazol-2-yl]benzamide]
225 to 226 | CC(C)n1nc(-c2sc(NC(=O)c3ccc(F)cc3)nc2-c2ccccc2)ccc1=O [Example 48, 4-fluoro-N-[5-(1-isopropyl-6-oxo-1,6-dihydro-3-pyridazinyl)-4-phenyl-1,3-thiazol-2-yl]benzamide]
248 to 249 | CC(C)n1nc(-c2sc(NC(=O)c3c(Cl)cccc3Cl)nc2-c2ccccc2)ccc1=O [Example 49, 2,6-Dichloro-N-[5-(1-isopropyl-6-oxo-1,6-dihydro-3-pyridazinyl)-4-phenyl-1,3-thiazol-2-yl]benzamide]
199 to 200 | CC(C)n1nc(-c2sc(NC(=O)N(C)C)nc2-c2ccccc2)ccc1=O [Example 50, N′-[5-(1-Isopropyl-6-oxo-1,6-dihydro-3-pyridazinyl)-4-phenyl-1,3-thiazol-2-yl]-N,N-dimethylurea]
253 to 254 | CC(C)n1nc(-c2sc(NC(=O)c3ccc(I)cc3)nc2-c2ccccc2)ccc1=O [Example 51, 4-Iodo-N-[5-(1-isopropyl-6-oxo-1,6-dihydro-3-pyridazinyl)-4-phenyl-1,3-thiazol-2-yl]benzamide]
138 to 140 | CC(C)n1nc(-c2sc(NC(=O)N3CCCCC3)nc2-c2ccccc2)ccc1=O [Example 52, N-[5-(1-Isopropyl-6-oxo-1,6-dihydro-3-pyridazinyl)-4-phenyl-1,3-thiazol-2-yl]-1-piperidinecarboxamide]
212 to 213 | CC(C)n1nc(-c2sc(NC(=O)c3ccccc3OC(F)(F)F)nc2-c2ccccc2)ccc1=O [Example 53, N-[5-(1-Isopropyl-6-oxo-1,6-dihydro-3-pyridazinyl)-4-phenyl-1,3-thiazol-2-yl]-2-(trifluoromethoxy)benzamide]
> 250 | CC(C)n1nc(-c2sc(NC(=O)c3ccc(CCl)cc3)nc2-c2ccccc2)ccc1=O [Example 56, 4-(Chloromethyl)-N-[5-(1-isopropyl-6-oxo-1,6-dihydro-3-pyridazinyl)-4-phenyl-1,3-thiazol-2-yl]benzamide]
250 to 252 | CC(C)n1nc(-c2sc(NC(=O)C3CC3)nc2-c2ccc(F)cc2)ccc1=O [Example 57, N-[4-(4-Fluorophenyl)-5-(1-isopropyl-6-oxo-1,6-dihydro-3-pyridazinyl)-1,3-thiazol-2-yl]cyclopropanecarboxamide]
198 to 199 | CC(C)CC(=O)Nc1nc(-c2ccccc2)c(-c2ccc(=O)n(C(C)C)n2)s1 [Example 58, N-[5-(1-Isopropyl-6-oxo-1,6-dihydro-3-pyridazinyl)-4-phenyl-1,3-thiazol-2-yl]-3-methylbutanamide]
189 to 190 | CC(C)n1nc(-c2sc(NC(C)(C)C)nc2-c2ccccc2)ccc1=O [Example 61, 6-[2-(tert-Butylamino)-4-phenyl-1,3-thiazol-5-yl]-2-isopropyl-3(2H)-pyridazinone]
167 to 169 | CCNc1nc(-c2ccccc2)c(-c2ccc(=O)n(C(C)C)n2)s1 [Example 62, 6-[2-(Ethylamino)-4-phenyl-1,3-thiazol-5-yl]-2-isopropyl-3(2H)-pyridazinone]

melting point [°C] | SMILES
> 250 | CC(C)n1nc(-c2sc(NC(=N)N)nc2-c2ccccc2)ccc1=O [Example 63, N-[5-(1-Isopropyl-6-oxo-1,6-dihydro-3-pyridazinyl)-4-phenyl-1,3-thiazol-2-yl]guanidine]
138 to 139 | CC(C)Nc1nc(-c2ccccc2)c(-c2ccc(=O)n(C(C)C)n2)s1 [Example 64, 2-Isopropyl-6-[2-(isopropylamino)-4-phenyl-1,3-thiazol-5-yl]-3(2H)-pyridazinone]
157 to 158 | CC(C)n1nc(-c2sc(NCc3ccccc3)nc2-c2ccccc2)ccc1=O [Example 65, 6-[2-(Benzylamino)-4-phenyl-1,3-thiazol-5-yl]-2-isopropyl-3 (2H)-pyridazinone]
115 to 116 | CC(C)n1nc(-c2sc(NCc3ccco3)nc2-c2ccccc2)ccc1=O [Example 66, 6-{2-[(2-Furylmethyl)amino]-4-phenyl-1,3-thiazol-5-yl}-2-isopropyl-3(2H)-pyridazinone]
194 to 195 | CC(C)n1nc(-c2sc(Nc3ccccn3)nc2-c2ccccc2)ccc1=O [Example 67, 2-Isopropyl-6-[4-phenyl-2-(2-pyridinylamino)-1,3-thiazol-5-yl]-3(2H)-pyridazinone]
194 to 195 | CC(C)n1nc(-c2sc(NCCCN3CCOCC3)nc2-c2ccccc2)ccc1=O [Example 68, 2-I sopropyl-6-(2-{[3-(4-morpholinyl)propyl]amino}-4-phenyl-1,3-thiazol-5-yl)-3(2H)-pyridazinone]
149 to 151 | CC(C)n1nc(-c2sc(NC3CCCCC3)nc2-c2ccccc2)ccc1=O [Example 70, 6-[2-(Cyclohexylamino)-4-phenyl-1,3-thiazol-5-yl]-2-isopropyl-3(2H)-pyridazinone]
239 to 240 | CC(C)n1nc(-c2sc(Nc3cccc4ccccc34)nc2-c2ccccc2)ccc1=O [Example 72, 2-Isopropyl-6-[2-(1-naphthylamino)-4-phenyl-1,3-thiazol-5-yl]-3(2H)-pyridazinone]
165 to 166 | CCCNc1nc(-c2ccccc2)c(-c2ccc(=O)n(C(C)C)n2)s1 [Example 73, 2-Isopropyl-6-[4-phenyl-2-(propylamino)-1,3-thiazol-5-yl]-3(2H)-pyridazinone]
165 to 166 | CC(C)n1nc(-c2sc(NCCN3CCCCC3)nc2-c2ccccc2)ccc1=O [Example 74, 2-Isopropyl-6-(4-phenyl-2-{[2-(1-piperidinyl)ethyl]amino}-1,3-thiazol-5-yl)-3(2H)-pyridazinone]
230 to 231 | CC(C)n1nc(-c2sc(NC=O)nc2-c2ccc(F)cc2)ccc1=O [Example 76, 4-(4-fluorophenyl)-5-(1-isopropyl-6-oxo-1,6-dihydro-3-pyridazinyl)-1,3-thiazol-2-ylformamide]
255.5 to 257 | CC(C)n1nc(-c2sc(N)nc2-c2ccc(F)cc2)ccc1=O [Example 77, 6-[2-amino-4-(4-fluorophenyl)-1,3-thiazol-5-yl]-2-isopropyl-3(2H)-pyridazinone]
233 to 235 | CC(C)n1nc(-c2sc(N)nc2-c2ccccc2F)ccc1=O [Example 79, 6-[2-Amino-4-(2-fluorophenyl)-1,3-thiazol-5-yl]-2-isopropyl-3(2H)-pyridazinone]
237 to 238 | CC(C)n1nc(-c2sc(N)nc2-c2cccc(F)c2)ccc1=O [Example 80, 6-[2-Amino-4-(3-fluorophenyl)-1,3-thiazol-5-yl]-2-isopropyl-3(2H)-pyridazinone]
235.5 to 237 | CC(C)n1nc(-c2sc(N)nc2-c2cccc(Cl)c2)ccc1=O [Example 81, 6-[2-Amino-4-(3-chlorophenyl)-1,3-thiazol-5-yl]-2-isopropyl-3(2H)-pyridazinone]
236 to 237.5 | CC(=O)Nc1nc(-c2ccc(F)cc2)c(-c2ccc(=O)n(C(C)C)n2)s1 [Example 82, N-[4-(4-fluorophenyl)-5-(1-isopropyl-6-oxo-1,6-dihydro-3-pyridazinyl)-1,3-thiazol-2-yl]acetamide]
202 to 203.5 | CC(C)n1nc(-c2sc(NC(=O)c3ccccc3)nc2-c2ccc(F)cc2)ccc1=O [Example 83, N-[4-(4-Fluorophenyl)-5-(1-isopropyl-6-oxo-1,6-dihydro-3-pyridazinyl)-1,3-thiazol-2-yl]-benzamide]
> 250 | Nc1nc(-c2ccccc2)c(-c2ccc(=O)[nH]n2)s1 [Example 84, 6-(2-amino-4-phenyl-1,3-thiazol-5-yl)-3(2H)-pyridazinone]
238 to 241 | Cn1nc(-c2sc(N)nc2-c2ccccc2)ccc1=O [Example 85, 6-(2-amino-4-phenyl-1,3-thiazol-5-yl)-2-methyl-3(2H)-pyridazinone]
